As a reminder, the pIC50 is the IC50 on a negative log10 scale, so that one unit is a factor of ten.

The values that follow come from US20240148821A1, “PHARMACEUTICAL USE OF CYCLIC PEPTIDE COMPOUND” (CHUGAI SEIYAKU KABUSHIKI KAISHA, priority 2021, published 2024).

pIC50: −log10 of the molar value. Numbered stars: 1 amine (or outer) side, 2 acyl side, 3 side chain; on linkers, the order of the positions; unused ones are H or OH. Bridge positions count the residues as written; N and C are the ends. Square brackets hold non-standard residues; d marks the D form. Peptide text beside a SMILES is read from it. * marks the point of attachment. hPhe(3-Cl-4-CF3) = N[C@@H](CCc1ccc(C(F)(F)F)c(Cl)c1)C(=O)O; NMePhe(4-CF3) = CN[C@@H](Cc1ccc(C(F)(F)F)cc1)C(=O)O; hPhe(4-CF3) = N[C@@H](CCc1ccc(C(F)(F)F)cc1)C(=O)O; 3Oxa8azabicyclo(3.2.1)octane = C1CC2COCC1N2*; NMePhe(4-Cl) = CN[C@@H](Cc1ccc(Cl)cc1)C(=O)O; NMePhe(4-Me) = CN[C@@H](Cc1ccc(C)cc1)C(=O)O; NMedβ3hAla = C[C@H](CC(=O)[*:2])N(C)[*:1]; NMeAla(cPent) = CN[C@@H](CC1CCCC1)C(=O)O; NMeGly(cPent) = CN[C@H](C(=O)O)C1CCCC1; Phe(3-I) = N[C@@H](Cc1cccc(I)c1)C(=O)O; X26 = CC(C)=CC[C@H](N[*:1])C(=O)[*:2]; NMeCha = CN[C@@H](CC1CCCCC1)C(=O)O; X124 = O=C([C@H]1COCCN1[*:1])[*:2]; cisHyp = O=C(O)[C@@H]1C[C@H](O)CN1; Hyp = O=C(O)[C@@H]1C[C@@H](O)CN1; NMeChg = CN[C@H](C(=O)O)C1CCCCC1; NMeF = CN[C@@H](Cc1ccccc1)C(=O)O; dNMeF = CN[C@H](Cc1ccccc1)C(=O)O; NMeD = CN[C@@H](CC(=O)O)C(=O)O; NMeL = CN[C@@H](CC(C)C)C(=O)O; dNMeAbu = CC[C@@H](NC)C(=O)O; d(β3hA) = C[C@@H](N)CC(=O)O; NMeS = CN[C@@H](CO)C(=O)O; NMeA = CN[C@@H](C)C(=O)O; NMeAib = CNC(C)(C)C(=O)O; Piperidide = C1CCN(*)CC1; Pra = C#CC[C@H](N)C(=O)O; dNMeA = CN[C@H](C)C(=O)O; Ac5c = NC1(C(=O)O)CCCC1; Aze = O=C(O)[C@@H]1CCN1; CH2CMe2OH = CC(C)(O)C*; Isopentyl = CC(C)CC*; NEtG = CCNCC(=O)O; Sar = CNCC(=O)O; Propyl = CCC*

This assay has as its target protein-protein interaction between Kras and SOS1 (biotin-tagged human Kras loaded with GDP, His-tagged human SOS1) (Homo sapiens (Human), UniProt P01116, G12D). As to the kind of experiment: Protein-protein interaction inhibition between Kras and SOS1 (KrasG12D-SOS PPI) using AlphaScreen.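 Note: kras produced in E. coli, Ni-coupled donor beads and streptavidin acceptor beads, excitation 680 nm with emission detected at 520–620 nm via singlet oxygen transfer.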 Format: biochemical. To be noted: AlphaScreen; biotin-tagged human Kras loaded with GDP, His-tagged human SOS1; read-out: KRAS G12D-SOS PPI IC50. For orientation: In Alpha technology, singlet oxygen from a donor bead excites a nearby acceptor bead.
On to `CCCOC[C@H]1C(=O)N(C)CC(=O)N[C@@H](CCc2ccc(C(F)(F)F)c(Cl)c2)C(=O)N2CCC[C@H]2C(=O)NC2(CCCC2)C(=O)N(C)[C@@H](C2CCCC2)C(=O)N(C)[C@H](C(=O)N2C3CCC2COC3)CC(=O)N(C)[C@@H](CC2CCCC2)C(=O)N[C@@H]([C@@H](C)CC)C(=O)N[C@@H](C)C(=O)N2CC[C@H]2C(=O)N1C` [Compound 1359] ([NMeAla(cPent)]IA[Aze][NMeS](Propyl)[Sar][hPhe(3-Cl-4-CF3)]P[Ac5c][NMeGly(cPent)][NMeD]-{3Oxa8azabicyclo(3.2.1)octane}; lactam N-11), for which the pIC50 was 8.21.
To `CC[C@H](C)[C@@H]1NC(=O)[C@H](C)N(C)C(=O)C[C@@H](C)NC(=O)[C@H](CC(C)C)N(C)C(=O)[C@H](Cc2ccccc2)N(C)C(=O)[C@@H]2C[C@H](O)CN2C(=O)[C@H](CCc2ccc(C(F)(F)F)cc2)NC(=O)CN(C)C(=O)[C@H](Cc2ccc(Cl)cc2)N(C)C(=O)CN(C)C(=O)CN(C)C1=O` [Compound 1373] (cyclo(I[Sar][Sar][NMePhe(4-Cl)][Sar][hPhe(4-CF3)][cisHyp][NMeF][NMeL][d(β3hA)][NMeA])) belongs 8.11; to `CC[C@H](C)[C@@H]1NC(=O)[C@H](CC(C)C)N(C)C(=O)C[C@@H](C(=O)N2CCCCC2)N(C)C(=O)[C@H](C2CCCCC2)N(C)C(=O)C2(CCCC2)NC(=O)[C@@H]2C[C@H](O)CN2C(=O)[C@H](CCc2ccc(C(F)(F)F)c(Cl)c2)NC(=O)CN(C)C(=O)[C@H](CC2CCCCC2)N(C)C(=O)CN(C)C(=O)CN(C)C1=O` [Compound 1374, (3S,9S,18S,21S,25S,28S,34S,36S)-3-[2-[3-chloro-4-(trifluoromethyl)phenyl]ethyl]-28-cyclohexyl-9-(cyclohexylmethyl)-36-hydroxy-21-isobutyl-7,10,13,16,22,26,29-heptamethyl-18-[(1S)-1-methylpropyl]-25-(piperidine-1-carbonyl)spiro[1,4,7,10,13,16,19,22,26,29,32-undecazabicyclo[32.3.0]heptatriacontane-31,1′-cyclopentane]-2,5,8,11,14,17,20,23,27,30,33-undecone] ([NMeL]I[Sar][Sar][NMeCha][Sar][hPhe(3-Cl-4-CF3)][cisHyp][Ac5c][NMeChg][NMeD]-Piperidide; lactam N-11), 9.27.
To `CC[C@H](C)[C@@H]1NC(=O)[C@H](C)N(C)C(=O)C[C@@H](C)NC(=O)[C@H](CC(C)C)N(C)C(=O)[C@H](Cc2ccccc2)N(C)C(=O)[C@@H]2C[C@@H](O)CN2C(=O)[C@H](CCc2ccc(C(F)(F)F)cc2)NC(=O)CN(C)C(=O)[C@H](Cc2ccc(Cl)cc2)N(C)C(=O)CN(C)C(=O)CN(C)C1=O` [Compound 1375] (cyclo([Hyp][NMeF][NMeL][d(β3hA)][NMeA]I[Sar][Sar][NMePhe(4-Cl)][Sar][hPhe(4-CF3)])) belongs 8.03; to `CC[C@H](C)[C@@H]1NC(=O)[C@H](CC(C)C)N(C)C(=O)C[C@@H](C(=O)N2CCCCC2)N(C)C(=O)[C@H](C2CCCCC2)N(C)C(=O)C2(CCCC2)NC(=O)[C@@H]2C[C@@H](O)CN2C(=O)[C@H](CCc2ccc(C(F)(F)F)c(Cl)c2)NC(=O)CN(C)C(=O)[C@H](CC2CCCCC2)N(C)C(=O)CN(C)C(=O)CN(C)C1=O` [Compound 1376, (3S,9S,18S,21S,25S,28S,34S,36R)-3-[2-[3-chloro-4-(trifluoromethyl)phenyl]ethyl]-28-cyclohexyl-9-(cyclohexylmethyl)-36-hydroxy-21-isobutyl-7,10,13,16,22,26,29-heptamethyl-18-[(1S)-1-methylpropyl]-25-(piperidine-1-carbonyl)spiro[1,4,7,10,13,16,19,22,26,29,32-undecazabicyclo[32.3.0]heptatriacontane-31,1′-cyclopentane]-2,5,8,11,14,17,20,23,27,30,33-undecone] ([NMeL]I[Sar][Sar][NMeCha][Sar][hPhe(3-Cl-4-CF3)][Hyp][Ac5c][NMeChg][NMeD]-Piperidide; lactam N-11), 9.15; to `CC[C@H](C)[C@@H]1NC(=O)[C@H](C)N(C)C(=O)C[C@@H](C)N(C)C(=O)[C@H](CC(C)C)NC(=O)C(C)(C)N(C)C(=O)[C@H](CC(C)C)NC(=O)[C@H](CCc2ccc(C(F)(F)F)c(Cl)c2)NC(=O)[C@@H](C)N(C)C(=O)[C@H](Cc2ccc(C)cc2)N(C)C(=O)CN(C)C(=O)CN(C)C1=O` [Compound 1381] (cyclo(I[Sar][Sar][NMePhe(4-Me)][dNMeA][hPhe(3-Cl-4-CF3)]L[NMeAib]L[NMedβ3hAla][NMeA])), 6.82.
The value for `CC[C@H](C)[C@@H]1NC(=O)[C@H](CC(C)C)N(C)C(=O)C[C@@H](C)N(C)C(=O)[C@H](CC(C)C)NC(=O)C(C)(C)N(C)C(=O)[C@H](CC(C)C)NC(=O)[C@H](CCc2ccc(C(F)(F)F)c(Cl)c2)NC(=O)[C@@H](C)N(C)C(=O)[C@H](Cc2ccc(C)cc2)N(C)C(=O)CN(C)C(=O)CN(C)C1=O` [Compound 1384] (cyclo(I[Sar][Sar][NMePhe(4-Me)][dNMeA][hPhe(3-Cl-4-CF3)]L[NMeAib]L[NMedβ3hAla][NMeL])) was 6.64.
Regarding `CC[C@H](C)[C@@H]1NC(=O)[C@H](C)N(C)C(=O)C[C@@H](C)N(C)C(=O)[C@H](CC(C)C)NC(=O)C(C)(C)N(C)C(=O)[C@H](CC(C)C)NC(=O)[C@H](CCc2ccc(C(F)(F)F)c(Cl)c2)NC(=O)[C@@H](C)N(C)C(=O)[C@H](Cc2ccc(C(F)(F)F)cc2)N(C)C(=O)CN(C)C(=O)CN(C)C1=O` [Compound 1385] (cyclo(I[Sar][Sar][NMePhe(4-CF3)][dNMeA][hPhe(3-Cl-4-CF3)]L[NMeAib]L[NMedβ3hAla][NMeA])), the pIC50 is 6.70.
As to `CC[C@H](C)[C@@H]1NC(=O)[C@H](CC(C)C)N(C)C(=O)C[C@@H](C)N(C)C(=O)[C@H](CC(C)C)NC(=O)C(C)(C)N(C)C(=O)[C@H](CC(C)C)NC(=O)[C@H](CCc2ccc(C(F)(F)F)c(Cl)c2)NC(=O)[C@@H](C)N(C)C(=O)[C@H](CC2CCCCC2)N(C)C(=O)CN(C)C(=O)CN(C)C1=O` [Compound 1389] (cyclo(I[Sar][Sar][NMeCha][dNMeA][hPhe(3-Cl-4-CF3)]L[NMeAib]L[NMedβ3hAla][NMeL])), the negative-log IC50 (pIC50) was 6.62.
Turning to `CC[C@H](C)[C@@H]1NC(=O)[C@H](C)N(C)C(=O)C[C@@H](C)N(C)C(=O)[C@H](CC(C)C)NC(=O)C(C)(C)N(C)C(=O)[C@H](CC(C)C)NC(=O)[C@H](CCc2ccc(C(F)(F)F)c(Cl)c2)NC(=O)[C@@H](C)N(C)C(=O)[C@H](CC2CCCCC2)N(C)C(=O)CN(C)C(=O)CN(C)C1=O` [Compound 1390] (cyclo(I[Sar][Sar][NMeCha][dNMeA][hPhe(3-Cl-4-CF3)]L[NMeAib]L[NMedβ3hAla][NMeA])), the pIC50 was 6.55.
To `C#CC[C@@H]1NC(=O)[C@H](Cc2cccc(I)c2)NC(=O)CN(C)C(=O)[C@H](Cc2ccc(C(F)(F)F)cc2)N(C)C(=O)CN(C)C(=O)CN(C)C(=O)[C@H]([C@@H](C)CC)NC(=O)[C@H](CC(C)C)N(C)C(=O)C[C@@H](C)N(C)C(=O)[C@H](CC(C)C)NC(=O)C(C)(C)N(C)C1=O` [Compound 1406] (cyclo(I[Sar][Sar][NMePhe(4-CF3)][Sar][Phe(3-I)][Pra][NMeAib]L[NMedβ3hAla][NMeL])) belongs 6.80; to `CC[C@H](C)[C@@H]1NC(=O)[C@H](CC(C)C)N(C)C(=O)C[C@@H](C)N(C)C(=O)[C@H](CC(C)C)NC(=O)C(C)(C)N(C)C(=O)[C@H](CC=C(C)C)NC(=O)[C@H](Cc2cccc(I)c2)NC(=O)CN(C)C(=O)[C@H](Cc2ccc(Cl)cc2)N(C)C(=O)CN(C)C(=O)CN(C)C1=O` [Compound 1418] (cyclo(I[Sar][Sar][NMePhe(4-Cl)][Sar][Phe(3-I)][X26][NMeAib]L[NMedβ3hAla][NMeL])), 6.96.
The value for `CC[C@@H]1C(=O)NC2(CCCC2)C(=O)N(C)[C@@H](C2CCCC2)C(=O)N(C)[C@H](C(=O)N2CCCCC2)CC(=O)N(C)[C@@H](CC(C)C)C(=O)N[C@@H]([C@@H](C)CC)C(=O)N(C)CC(=O)N(C)CC(=O)N(C)[C@@H](CC2CCCCC2)C(=O)N(C)CC(=O)N[C@@H](CCc2ccc(C(F)(F)F)c(Cl)c2)C(=O)N1C` [Compound 1439] ([NMeL]I[Sar][Sar][NMeCha][Sar][hPhe(3-Cl-4-CF3)][dNMeAbu][Ac5c][NMeGly(cPent)][NMeD]-Piperidide; lactam N-11) was 8.43; that for `CC[C@H](C)[C@@H]1NC(=O)[C@H](CC(C)C)N(C)C(=O)C[C@@H](C(=O)N2CCCCC2)N(C)C(=O)[C@H](C2CCCCC2)N(C)C(=O)C2(CCCC2)NC(=O)[C@H]2COCCN2C(=O)[C@H](CCc2ccc(C(F)(F)F)c(Cl)c2)NC(=O)CN(C)C(=O)[C@H](CC2CCCCC2)N(C)C(=O)CN(C)C(=O)CN(C)C1=O` [Compound 1445] ([NMeL]I[Sar][Sar][NMeCha][Sar][hPhe(3-Cl-4-CF3)][X124][Ac5c][NMeChg][NMeD]-Piperidide; lactam N-11) was 6.60; that for `CC[C@H](C)[C@@H]1NC(=O)[C@H](CC(C)C)N(C)C(=O)C[C@@H](C(=O)N2CCCCC2)N(C)C(=O)[C@H](C2CCCC2)N(C)C(=O)C2(CCCC2)NC(=O)[C@@H](Cc2ccccc2)N(C)C(=O)[C@H](CCc2ccc(C(F)(F)F)c(Cl)c2)NC(=O)CN(C)C(=O)[C@H](CC2CCCCC2)N(C)C(=O)CN(C)C(=O)CN(C)C1=O` [Compound 1446] ([NMeL]I[Sar][Sar][NMeCha][Sar][hPhe(3-Cl-4-CF3)][dNMeF][Ac5c][NMeGly(cPent)][NMeD]-Piperidide; lactam N-11) was 6.82.
With `CC[C@H](C)[C@@H]1NC(=O)[C@H](CC(C)C)N(C)C(=O)C[C@@H](C)NC(=O)[C@H](CC(C)C)N(C)C(=O)C2(CCCC2)NC(=O)[C@H](COCC(C)(C)O)N(C)C(=O)[C@H](CCc2ccc(C(F)(F)F)c(Cl)c2)NC(=O)CN(C)C(=O)[C@H](COCCC(C)C)N(C)C(=O)CN(C)C(=O)CN(CC)C1=O` [Compound 1464] (cyclo([Ac5c][NMeL][d(β3hA)][NMeL]I[NEtG][Sar][NMeS](Isopentyl)[Sar][hPhe(3-Cl-4-CF3)][NMeS](CH2CMe2OH))), the pIC50 is 6.72.
